Experimental data: patent publication US20230382940A1, “ANTIVIRAL COMPOUNDS AND METHODS OF MAKING AND USING THE SAME” (Gilead Sciences, Inc., priority 2022, published 2023)

Experiments:
[1] = test system: Respiratory syncytial virus recombinant with luciferase (RSV-Luc5); assay: NHBE RSV-Luc5 384-well assay (EC50 RSVFLUC NHBE-384 v2), Example W; assay type: cell-based; details: human respiratory syncytial virus, 72 h, read-out: EC50 RSV FLUC NHBE 384 V2 (per Ex. W)
Description: Example W: NHBE RSV-Luc5 384-Well Assay (EC50 RSVFLUC NHBE-384 v2)
Normal Human Bronchial Epithelial (NHBE) cells were purchased from Lonza (Walkersville, MD Cat #CC2540) and maintained in BEGM Bronchial Epithelial Cell Growth Medium BulletKit (Lonza CC-3170).
Cells were thawed, expanded, and were used for experiments at passage 2. Respiratory syncytial virus recombinant with luciferase (RSV-Luc5) (≥1×10^7 Infectious Units/mL (IU/mL) determined by TCID50) was purchased from Microbiologics (Saint Cloud, MN). Viral replication was determined in NHBE cells in the following manner.
(§1) Compounds are prepared in 100% DMSO in 384-well polypropylene plates (Greiner, Monroe, NC, Cat #784201) with 8 compounds per plate in grouped replicates of 4 at 10 serially diluted concentrations (1:3). The serially diluted compounds were transferred to low dead volume Echo plates (Labcyte, Sunnyvale, CA, Cat #LP-0200).
The test compounds were spotted to 384-well assay plates (Greiner, Monroe, NC, Cat #781091) at 200 nL per well using an Echo acoustic dispenser (Labcyte, Sunnyvale, CA). NHBE cells were harvested and suspended in BEGM Bronchial Epithelial Cell Growth Medium BulletKit and seeded to the pre-spotted assay plates at 5,000 cells per well in 30 μL. RSV-Luc5 virus was diluted in BEGM Bronchial Epithelial Cell Growth Medium BulletKit at 500,000 Infectious Units (IU) per mL and 10 μL per well was added to the assay plates containing cells and compounds, for an MOI of 1. The assay plates were incubated for 3 days at 37° C. and 5% CO2. At the end of incubation, One-Glo reagent (Promega, Madison, WI, Cat #E6120) was prepared. The assay plates and One-Glo reagent were equilibrated to room temperature for at least 15 minutes. 40 μL per well of One-Glo reagent was added and the plates were incubated at room temperature for 15 minutes before reading the luminescence signal on an EnVision multimode plate reader (Perkin Elmer, Waltham, MA). Remdesivir was used as positive control and DMSO was used as negative control. Values were normalized to the positive and negative controls (as 0% and 100% replication, respectively) and data was fitted using non-linear regression analysis by Gilead's dose response tool. The EC50 value for each compound was defined as the concentration reducing the viral replication by 50%.

[2] = test system: Human Rhinovirus 16 (HRV16); assay: H1-HeLa HRV-CTG 384-well assay, HRV16, Example X; assay type: cell-based; details: Rhinovirus A, 96 h; H1-HeLa cells, HRV16 MOI 0.25, 4 days, Celltiter-Glo; read-out: EC50 H1-HeLa_HRV 16_HRV-CTG 384-well Assay (per Ex. X)
Description: Example X: H1-HeLa HRV-CTG 384-Well Assay
H1-Hela cell line (ATCC, Manassas, VA, Cat #CRL-1958) was maintained in Dulbecco's […] (DMEM) (Corning, New York, NY, Cat #15-018CM) supplemented with 10% fetal bovine serum (FBS) (Hyclone, Logan, UT, Cat #SH30071-03), and 1× Penicillin-Streptomycin-L-Glutamine (Corning, New York, NY, Cat #30-009-CI). Cells were passaged 2 times per week to maintain sub-confluent densities and were used for experiments at passage 5-30. The Human Rhinovirus 1B (HRV1B) (ATCC, Manassas, VA, Cat #VR-1645), Human Rhinovirus 14 (HRV14) (ATCC, Manassas, VA, Cat #VR-284), and Human Rhinovirus 16 (HRV16) (ATCC, Manassas, VA, Cat #BR-283) was obtained through ATCC. Viral infection was monitored by determining viability of H1-HeLa cells as described below.
as §1, with “Test molecules” for “Compounds”
The test compounds were spotted to 384-well assay plates (Greiner, Monroe, NC, Cat #781091) at 200 nL per well using an Echo acoustic dispenser (Labcyte, Sunnyvale, CA). H1-HeLa cells were harvested and suspended in DMEM (supplemented with 2% FBS and 1× Penicillin-Streptomycin-L-Glutamine) and seeded to the pre-spotted assay plates at 5,000 cells per well in 30 μL. HRV1B, HRV14, and HRV16 was diluted in DMEM (supplemented with 2% FBS and 1× Penicillin-Streptomycin-L-Glutamine) at 97.1 million Infectious Units (IU) per mL, 151 million IU per mL and 221 million IU per mL respectively. 10 μL of virus per well was added to the assay plates containing cells and compounds, for an MOI of 0.5, 1.0, and 0.25 respectively. The assay plates were incubated for 4 days at 37° C. and 5% CO2. At the end of incubation, Celltiter-Glo (Promega, Madison, WI, Cat #G7573) was prepared. The assay plates and Celltiter-Glo reagent were equilibrated to room temperature for at least 15 minutes. 40 μL per well of Celltiter-Glo reagent was added and the plates were incubated at room temperature for 15 minutes before reading the luminescence signal on an EnVision multimode plate reader (Perkin Elmer, Waltham, MA). Rupintrivir was used as positive control and DMSO was used as negative control. Values were normalized to the positive and negative controls (as 0% and 100% replication, respectively) and data was fitted using non-linear regression analysis by Gilead's dose response tool. The EC50 value for each compound was defined as the concentration reducing viral replication by 50%.

| Structure (SMILES) | EC50 [1] [µM] | EC50 [2] [µM] |
| --- | --- | --- |
| N#C[C@]1(COC(=O)O[C@@H]2C[C@@H]3C[C@@H]3C2)O[C@@H](c2ccc3c(N)ncnn23)[C@H](O)[C@@H]1O [Compound 39, ((2R,3S,4R,5S)-5-(4-aminopyrrolo[2,1-f][1,2,4]triazin-7-yl)-2-cyano-3,4-dihydroxytetrahydrofuran-2-yl)methyl ((1R,3r,5S)-bicyclo[3.1.0]hexan-3-yl) carbonate] | 7.84 | 22 |
| C[C@H]1CC[C@H](OC(=O)OC[C@@]2(C#N)O[C@@H](c3ccc4c(N)ncnn34)[C@H](O)[C@@H]2O)CC1 [Compound 40, ((2R,3S,4R,5S)-5-(4-aminopyrrolo[2,1-f][1,2,4]triazin-7-yl)-2-cyano-3,4-dihydroxytetrahydrofuran-2-yl)methyl ((1r,4R)-4-methylcyclohexyl) carbonate] | 7.42 | 29.3 |
| CCCOC(=O)OC[C@@]1(C#N)O[C@@H](c2ccc3c(N)ncnn23)[C@H](O)[C@@H]1O [Compound 9, ((2R,3S,4R,5S)-5-(4-aminopyrrolo[2,1-f][1,2,4]triazin-7-yl)-2-cyano-3,4-dihydroxytetrahydrofuran-2-yl)methyl propyl carbonate] | 15.9 | 10.9 |
| CC[C@H](C)OC(=O)OC[C@@]1(C#N)O[C@@H](c2ccc3c(N)ncnn23)[C@H](O)[C@@H]1O [Compound 4, ((2R,3S,4R,5S)-5-(4-aminopyrrolo[2,1-f][1,2,4]triazin-7-yl)-2-cyano-3,4-dihydroxytetrahydrofuran-2-yl)methyl ((S)-sec-butyl) carbonate] | 9.85 | 38.6 |
| CCCOCCOC(=O)OC[C@@]1(C#N)O[C@@H](c2ccc3c(N)ncnn23)[C@H](O)[C@@H]1O [Compound 34, ((2R,3S,4R,5S)-5-(4-aminopyrrolo[2,1-f][1,2,4]triazin-7-yl)-2-cyano-3,4-dihydroxytetrahydrofuran-2-yl)methyl (2-propoxyethyl) carbonate] | 6.39 | 12.1 |
| CC[C@@H](C)OC(=O)OC[C@@]1(C#N)O[C@@H](c2ccc3c(N)ncnn23)[C@H](O)[C@@H]1O [Compound 10, ((2R,3S,4R,5S)-5-(4-aminopyrrolo[2,1-f][1,2,4]triazin-7-yl)-2-cyano-3,4-dihydroxytetrahydrofuran-2-yl)methyl ((R)-sec-butyl) carbonate] | 11.4 | 36.7 |
| CC(C)COC(=O)OC[C@@]1(C#N)O[C@@H](c2ccc3c(N)ncnn23)[C@H](O)[C@@H]1O [Compound 8, ((2R,3S,4R,5S)-5-(4-aminopyrrolo[2,1-f][1,2,4]triazin-7-yl)-2-cyano-3,4-dihydroxytetrahydrofuran-2-yl)methyl isobutyl carbonate] | 12.5 | 9.82 |
| N#C[C@]1(COC(=O)OC2CCOCC2)O[C@@H](c2ccc3c(N)ncnn23)[C@H](O)[C@@H]1O [Compound 12, ((2R,3S,4R,5S)-5-(4-aminopyrrolo[2,1-f][1,2,4]triazin-7-yl)-2-cyano-3,4-dihydroxytetrahydrofuran-2-yl)methyl (tetrahydro-2H-pyran-4-yl) carbonate] | 8.88 | 30.3 |
| CC[C@H](C)COC(=O)OC[C@@]1(C#N)O[C@@H](c2ccc3c(N)ncnn23)[C@H](O)[C@@H]1O [Compound 28, ((2R,3S,4R,5S)-5-(4-aminopyrrolo[2,1-f][1,2,4]triazin-7-yl)-2-cyano-3,4-dihydroxytetrahydrofuran-2-yl)methyl ((S)-2-methylbutyl) carbonate] | 9.4 | 9.51 |
| N#C[C@]1(COC(=O)O[C@@H]2CCOC2)O[C@@H](c2ccc3c(N)ncnn23)[C@H](O)[C@@H]1O [Compound 24, ((2R,3S,4R,5S)-5-(4-aminopyrrolo[2,1-f][1,2,4]triazin-7-yl)-2-cyano-3,4-dihydroxytetrahydrofuran-2-yl)methyl ((R)-tetrahydrofuran-3-yl) carbonate] | 7.33 | 14.1 |
| N#C[C@]1(COC(=O)OCc2ccccc2)O[C@@H](c2ccc3c(N)ncnn23)[C@H](O)[C@@H]1O [Compound 29, ((2R,3S,4R,5S)-5-(4-aminopyrrolo[2,1-f][1,2,4]triazin-7-yl)-2-cyano-3,4-dihydroxytetrahydrofuran-2-yl)methyl benzyl carbonate] | 10.9 | 9.86 |
| N#C[C@]1(COC(=O)OC2CC3(CCC3)C2)O[C@@H](c2ccc3c(N)ncnn23)[C@H](O)[C@@H]1O [Compound 36, ((2R,3S,4R,5S)-5-(4-aminopyrrolo[2,1-f][1,2,4]triazin-7-yl)-2-cyano-3,4-dihydroxytetrahydrofuran-2-yl)methyl spiro[3.3]heptan-2-yl carbonate] | 8.42 | 12 |
| N#C[C@]1(COC(=O)OCCc2ccccc2)O[C@@H](c2ccc3c(N)ncnn23)[C@H](O)[C@@H]1O [Compound 5, ((2R,3S,4R,5S)-5-(4-aminopyrrolo[2,1-f][1,2,4]triazin-7-yl)-2-cyano-3,4-dihydroxytetrahydrofuran-2-yl)methyl phenethyl carbonate] | 12.5 | 11.2 |
| N#C[C@]1(COC(=O)OCC2CC2)O[C@@H](c2ccc3c(N)ncnn23)[C@H](O)[C@@H]1O [Compound 32, ((2R,3S,4R,5S)-5-(4-aminopyrrolo[2,1-f][1,2,4]triazin-7-yl)-2-cyano-3,4-dihydroxytetrahydrofuran-2-yl)methyl (cyclopropylmethyl) carbonate] | 7.12 | 12.1 |
| CCCCCOC(=O)OC[C@@]1(C#N)O[C@@H](c2ccc3c(N)ncnn23)[C@H](O)[C@@H]1O [Compound 20, ((2R,3S,4R,5S)-5-(4-aminopyrrolo[2,1-f][1,2,4]triazin-7-yl)-2-cyano-3,4-dihydroxytetrahydrofuran-2-yl)methyl pentyl carbonate] | 7.51 | 9.58 |
| CC(C)COC(=O)OC[C@@]1(C#N)O[C@@H](c2ccc3c(N)ncnn23)[C@@H]2OC(=O)O[C@@H]21 [Compound 15, ((3aS,4R,6S,6aS)-6-(4-aminopyrrolo[2,1-f][1,2,4]triazin-7-yl)-4-cyano-2-oxotetrahydrofuro[3,4-d][1,3]dioxol-4-yl)methyl isobutyl carbonate] | 11.4 | 9.15 |
